Where two headings read alike, the source gives them in different places.
How the values were obtained:
[1] = tested on: amphetamine-induced hyperlocomotion; test: Reversal of amphetamine-induced hyperlocomotion; assay type: in vivo, male Sprague-Dawley rats; conditions: test compound by oral gavage in 20% HP-beta-CD; amphetamine sulfate 1 mg/kg sc; FIG. 4
Procedure: Locomotor activity was assessed as mean distance traveled (cm) in standard 16×16 photocell testing chambers measuring 43.2 cm (Length)×43.2 cm (Width)×30.5 cm (Height) (Med Associates, St. Albans, Vt.). Animals were habituated to individual activity chambers for at least 30 min prior to drug administration. Following administration of drug or vehicle, activity was recorded for a 90 minute time period. Data was expressed as the mean (±SEM) distance traveled recorded in 5 min intervals over the test period. The data was analyzed using repeated measures analysis of variance (ANOVA) followed by post-hoc testing using Dunnett's test, when appropriate. A difference was considered significant when p≦0.05. […]
The animals were habituated in Smart Open Field locomotor activity test chambers (Hamilton-Kinder, San Diego, Calif.) with 16×16 photobeams to automatically record locomotor activity for 30 min and then dosed with vehicle or test compound. […] At 60 min, all rats were injected subcutaneously with 1 mg/kg amphetamine or vehicle and then monitored for an additional 60 min. Animals are monitored for a total of 120 minutes. Data are expressed as changes in ambulation defined as total number of beam breaks per 5 min periods.
The data for the dose-response studies were analyzed by a between-group analysis of variance. […]

human mGluR5a receptor = human mGluR5a receptor (Homo sapiens, UniProt P41594); test: Cell-based functional assay (Ca2+ mobilization, FDSS) for positive allosteric modulation of mGluR5; conditions: for EC50: HEK cells transfected with human mGluR5a (H10H or H12H), potentiation in presence of EC20 glutamate; for Emax: maximum % effect in concentration-response curve, as percent of response to maximally effective glutamate concentration
Procedure: The mGluR5 activity was determined using the metabotropic glutamate receptor activity assays in human embryonic kidney cells as described herein, wherein the human embryonic kidney cells were transfected with human mGluR5. The compounds in Table I were synthesized with methods identical or analogous to those shown herein. The Synthetic Route Reference indicated in Table I refers to the Reaction Scheme number described above. The requisite starting materials were commercially available, described in the literature, or readily synthesized by one skilled in the art of organic synthesis.
Human mGluR5a cDNA in pCMV6-XL6 mammalian expression plasmid was purchased from OriGene Technologies, Inc. (catalogue number SC326357) and subcloned into pcDNA3.1(−). […] Monoclones were named for the species (“H” for human) plus the location on the plate (e.g. “10H”).
HEK cells transfected with the human mGluR5a receptor (H10H or H12H cell line) were plated at 15,000 cells/well in clear-bottomed poly-D-lysine-coated assay plates (BD Falcon) in glutamate-glutamine-free growth medium and incubated overnight at 37° C. and 5% CO2. Cell-lines used were either the H10H or H12H cell-lines expressing the human mGluR5 receptor. The following day, the growth medium was removed and the cells were washed with assay buffer containing 1× Hank's balanced salt solution (Invitrogen, Carlsbad, Calif.), 20 mM HEPES, 2.5 mM probenecid, pH 7.4 and left with 20 μL of this reagent. Following this step, the cells were loaded with calcium indicator dye, fluo-4 AM, to a final concentration of 2 μM and incubated for 40-45 min at 37° C. The dye solution was removed and replaced with assay buffer. Cell plates were held for 10-15 min at room temperature and were then loaded into the Functional Drug Screening System 6000 (FDSS 6000, Hamamatsu, Japan).
After establishment of a fluorescence baseline for about 3 seconds, the compounds of the present invention were added to the cells, and the response in cells was measured. 2.3 minutes later an EC20 concentration of the mGluR5 receptor agonist glutamate was added to the cells, and the response of the cells was measured for about 1.7 minutes. All test compounds were dissolved and diluted to a concentration of 10 mM in 100% DMSO and then serially diluted into assay buffer for a 2× stock solution in 0.6% DMSO; stock compounds were then added to the assay for a final DMSO concentration of 0.3% after the first addition to the assay well. Calcium fluorescence measures were recorded as fold over basal fluorescence; raw data was then normalized to the maximal response to glutamate.
The concentration-response curves of compounds of the present invention, obtained in the presence of EC20 of mGluR5 receptor agonist glutamate to determine positive allosteric modulation, were generated using Microsoft Excel with IDBS XLfit add-ins. The raw data file containing all time points was used as the data source in the analysis template. This was saved by the FDSS as a tab-delimitted text file. Data were normalized using a static ratio function (F/F0) for each measurement of the total 350 values per well divided by each well's initial value. Data was then reduced as to peak amplitudes (Max—Initial Min) using a time range that starts approximately 1 second after the glutamate EC20 addition and continues for approximately 40 seconds. This is sufficient time to capture the peak amplitude of the cellular Calcium response. Individual amplitudes were expressed as % EMax by multiplying each amplitude by 100 and then dividing the product by the mean of the amplitudes derived from the glutamate ECMax-treated wells. pEC50 values for test compounds were generated by fitting the normalized values versus the log of the test compound concentration (in mol/L) using a 4 parameter logistic equation where none of the parameters were fixed.

Sequence of human mGluR5a receptor (P41594 21-1180 isoform P41594-2 limits assumed): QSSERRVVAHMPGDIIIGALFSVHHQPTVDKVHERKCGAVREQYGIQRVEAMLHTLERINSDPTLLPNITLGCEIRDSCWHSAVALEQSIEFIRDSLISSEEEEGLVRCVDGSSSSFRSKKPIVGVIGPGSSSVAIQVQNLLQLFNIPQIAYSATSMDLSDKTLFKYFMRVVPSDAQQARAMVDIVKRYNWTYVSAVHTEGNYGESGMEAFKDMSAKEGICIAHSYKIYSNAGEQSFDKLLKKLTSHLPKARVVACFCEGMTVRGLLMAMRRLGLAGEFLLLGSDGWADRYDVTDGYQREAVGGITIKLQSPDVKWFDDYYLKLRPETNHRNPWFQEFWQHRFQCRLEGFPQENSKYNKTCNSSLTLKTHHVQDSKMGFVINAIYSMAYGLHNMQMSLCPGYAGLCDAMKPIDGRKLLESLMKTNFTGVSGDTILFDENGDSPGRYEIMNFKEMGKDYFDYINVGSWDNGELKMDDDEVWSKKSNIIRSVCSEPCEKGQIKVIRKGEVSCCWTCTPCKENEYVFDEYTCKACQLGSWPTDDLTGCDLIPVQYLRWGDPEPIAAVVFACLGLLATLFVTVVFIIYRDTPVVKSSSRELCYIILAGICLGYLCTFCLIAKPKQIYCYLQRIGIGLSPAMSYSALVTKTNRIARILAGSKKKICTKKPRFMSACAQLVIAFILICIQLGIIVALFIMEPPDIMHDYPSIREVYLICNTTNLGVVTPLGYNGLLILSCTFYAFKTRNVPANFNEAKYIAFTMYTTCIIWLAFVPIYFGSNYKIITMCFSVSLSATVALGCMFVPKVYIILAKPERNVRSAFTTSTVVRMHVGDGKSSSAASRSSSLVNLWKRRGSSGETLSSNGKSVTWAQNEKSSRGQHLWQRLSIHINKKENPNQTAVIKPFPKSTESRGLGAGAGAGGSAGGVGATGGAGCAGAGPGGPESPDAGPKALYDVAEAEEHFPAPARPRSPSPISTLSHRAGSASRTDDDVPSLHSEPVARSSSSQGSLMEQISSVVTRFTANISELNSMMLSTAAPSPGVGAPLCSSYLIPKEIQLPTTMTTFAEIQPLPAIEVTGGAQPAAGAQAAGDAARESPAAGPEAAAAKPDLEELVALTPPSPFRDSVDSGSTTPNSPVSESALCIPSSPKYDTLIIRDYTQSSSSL

EC50 (human mGluR5a receptor; concentration in mol/L, read-out: pEC50 (converted)) | EC50 (human mGluR5a receptor; read-out: EC50) | Emax (human mGluR5a receptor) | melting point | Structure (SMILES) | reversal of amphetamine-induced hyperlocomotion [1]
 |  |  |  | O=C1N(c2ccc(F)cc2)CCc2nc(COc3ccccc3)cn21 [6-(4-fluorophenyl)-2-(phenoxymethyl)-7,8-dihydroimidazo[1,2-c]pyrimidin-5(6H)-one] | Dose-dependent results for reversal of amphetamine-induced hyperlocomotion
269 nM | 351 nM | 61% | 196.5 °C | Cc1cc(N2CCc3nc(COc4ccccc4)cn3C2=O)ncc1F [compound 40] | 
 | > 30200 nM | 17% | 200.1 °C | O=C1N(c2ccc(F)cc2)CCc2nc(COc3ccccc3)c(Cl)n21 [compound 42, 3-chloro-6-(4-fluoro-phenyl)-2-phenoxymethyl-7,8-dihydro-6H-imidazo[1,2-c]pyrimidin-5-one] | 
 | > 30200 nM | 20% | 160.4 °C | Cc1c(COc2ccccc2)nc2n1C(=O)N(c1ccc(F)cc1)CC2 [compound 44, 6-(4-fluoro-phenyl)-3-methyl-2-phenoxymethyl-7,8-dihydro-6H-imidazo[1,2-c]pyrimidin-5-one] | 

— patent US8865725B2, “Substituted imidazopyrimidin-5(6H)-ones as allosteric modulators of MGLUR5 receptors” (Vanderbilt University, priority 2011, dated 2014)
